≈ marks a conversion by molar mass, not a printed value. Where two headings read alike, the source gives them in different places. Where a SMILES comes first, the peptide text is derived from it. The star is where a group is joined. X5 = CC[C@@]1(O)C(=O)OCc2c1cc1n(c2=O)Cc2c-1nc1ccccc1c2CCN(CC(C)C)*; Propanoyl(3-maleimido) = O=C1C=CC(=O)N1CCC(=O)*; PEG6 = NCCOCCOCCOCCOCCOCCOCCC(=O)O
Columns and labels:
[1] = system: colo320 (colorectal cancer tissue); assay: cells; format: cell-based; conditions: CCK8, 48 h; Table 6
How it was run: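 Colo320 cells, 5,000 per well, exposed to drug concentration series for 48 h at 37 °C, 5% CO2 (0.1% DMSO controls). Viability by CCK8, absorbance at 450 nm after about 2 h. Survival rates and IC50 calculated.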

[2] = system: sarcoma SJSA-1 tumor model; conditions: Table 7
How it was run: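 SJSA-1 cells (2×10^7, DMEM/10% FBS, under 15 passages) implanted subcutaneously in right chest of female BALB/c nude mice, 6-8 weeks old. At ≥100 mm^3, randomized three per group; dosing once weekly for three weeks, saline as control, day 1 = first treatment.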

[3] = system: colo320 colorectal cancer tumor model; conditions: Table 8
How it was run: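 Female BALB/c nude mice, 6–8 weeks old, received 7.5×10^6 colo320 cells subcutaneously in the right chest. Once tumors reached at least 120 mm^3 they were randomized three per group. Treatment with test agents or saline control was given once weekly for four weeks.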

[4] = system: sarcoma SJSA-1 tumor model; assay: Efficacy in animal model of sarcoma SJSA-1, 30 mg/kg once a week for two weeks (Example 40); format: in vivo, BALB/c mice; conditions: 30 mg/kg once a week for two weeks
Protocol: Test objective: To further compare the antitumor efficacy of different polypeptide Linkers in an animal tumor model of sarcoma SJSA-1.
Test drug: Polypeptide conjugate and normal saline control group.
The control group was administered normal saline. Administration was performed once a week for two weeks.

[5] = Tumor homogenate activation efficiency, ovarian cancer tissue (Examples 28, 37); format: in vitro ADME; conditions: pH 5.0, 37° C., 2 h; Table 10
How it was run: (§1)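 Each conjugate, dissolved at 1 mg/ml in acidic MES saline (pH 5.0), was exposed to 100 μg homogenate for 2 h at 37° C; released Belotecan was quantified by HPLC peak areas.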

[6] = Tumor homogenate activation efficiency, sarcoma tissue (Examples 28, 37); format: in vitro ADME; conditions: pH 5.0, 37° C., 2 h; Table 10
How it was run: as §1

[7] = Tumor homogenate activation efficiency, breast cancer tissue (Examples 28, 37); format: in vitro ADME; conditions: pH 5.0, 37° C., 2 h; Table 10
How it was run: as §1

[8] = Tumor homogenate activation efficiency, non-small cell lung cancer tissue (Examples 28, 37); format: in vitro ADME; conditions: pH 5.0, 37° C., 2 h; Table 10
How it was run: as §1

[9] = Tumor homogenate activation efficiency, colorectal cancer tissue (Example 37); format: in vitro ADME; conditions: pH 5.0, 37° C., 2 h; Table 10
How it was run: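 Polypeptide conjugate at 1 mg/ml in 50 mM MES, 250 mM NaCl, pH 5.0, incubated with 100 μg colorectal tumor tissue homogenate at 37° C for 2 h. HPLC read-out; release percentage = Belotecan peak area over total area of Belotecan and all Belotecan-containing compounds.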

[10] = Homogenate activation efficiency, heart tissue (Examples 28, 37); format: in vitro ADME; conditions: pH 5.0, 37° C., 2 h; Table 10
[11] = 15 mg/kg once a week for three weeks
[12] = 45 mg/kg once a week for three weeks
[13] = 15 mg/kg once a week for four weeks
[14] = 45 mg/kg once a week for four weeks

CC[C@@]1(O)C(=O)OCc2c1cc1n(c2=O)Cc2c-1nc1ccccc1c2CCN(CC(C)C)C(=O)[C@H](CC(C)C)NC(=O)[C@H](CC(N)=O)NC(=O)[C@H](C)NC(=O)[C@H](C)NC(=O)CCOCCOCCOCCOCCOCCOCCNC(=O)CCN1C(=O)C=CC1=O [MI-6PEG-AANL-D5] ({Propanoyl(3-maleimido)-PEG6}-AANL-X5)
IC50 Colorectal cancer tissue (colo320) [1]: 2.42 µg/mL (≈ 1.86 µM) | Mouse weight (%) [2, 11]: +18% | SJSA-1 (sarcoma tissue) growth rate (%) [2, 11]: 1069.02% | SJSA-1 (sarcoma tissue) mean tumor volume (mm^3) [2, 11]: 1304.2 mm^3 | Mouse weight (%) [2, 12]: +17% | SJSA-1 (sarcoma tissue) growth rate (%) [2, 12]: 933.13% | SJSA-1 (sarcoma tissue) mean tumor volume (mm^3) [2, 12]: 1165.2 mm^3 | Mouse weight (%) [3, 13]: +19% | colo320 (colorectal cancer cell) growth rate (%) [3, 13]: 1027.54% | colo320 (colorectal cancer cell) mean tumor volume (mm^3) [3, 13]: 1257.2 mm^3 | Mouse weight (%) [3, 14]: +19% | colo320 (colorectal cancer cell) growth rate (%) [3, 14]: 643.05% | colo320 (colorectal cancer cell) mean tumor volume (mm^3) [3, 14]: 755.9 mm^3 | SJSA-1 (sarcoma tissue) mean tumor volume (mm^3) Day 1 ([4]; Day 1): 139.89 mm^3 | SJSA-1 (sarcoma tissue) mean tumor volume (mm^3) Day 4 ([4]; Day 4): 429.56 mm^3 | SJSA-1 (sarcoma tissue) mean tumor volume (mm^3) Day 7 ([4]; Day 7): 658.17 mm^3 | SJSA-1 (sarcoma tissue) mean tumor volume (mm^3) Day 10 ([4]; Day 10): 876.45 mm^3 | Mouse weight (%) on Day 14 ([4]; Day 14): −1.1% | SJSA-1 (sarcoma tissue) growth rate (%) on Day 14 ([4]; Day 14): 979.44% | SJSA-1 (sarcoma tissue) mean tumor volume (mm^3) Day 14 ([4]; Day 14): 1370.14 mm^3 | Percentage of release efficiency (%) Ovarian cancer tissue (A2780) [5]: 74.3% | Percentage of release efficiency (%) Sarcoma tissue (SJSA1) [6]: 77.5% | Percentage of release efficiency (%) Breast cancer tissue (SKBR3) [7]: 70.2% | Percentage of release efficiency (%) Non-small cell lung cancer tissue (A549) [8]: 85.5% | Percentage of release efficiency (%) Colorectal cancer tissue (colo320) [9]: 69.8% | Percentage of release efficiency (%) Heart tissue [10]: 5.5%
